Where two headings read alike, the source gives them in different places.
How the values were obtained:
[1] = tested on: SARS-CoV-2 hCoV-19/Japan/TY38-873/2021; assay: Test Example 10-2: CPE suppression in HEK293T/ACE2-TMPRSS2 cells (TY38-873); type: cell-based; details: Severe acute respiratory syndrome coronavirus 2, HEK-293T
[2] = tested on: SARS-CoV-2 Omicron Strain; assay: Test Example 1-3: CPE suppression in Vero E6/TMPRSS2 cells, Omicron strains; type: cell-based
SARS-CoV Hanoi strain = assay: microbe, parasite or virus in culture; details: Severe acute respiratory syndrome coronavirus, VeroE6/TMPRSS2, 72 h, read-out: EC50 (50% virus infected cell death inhibitory concentration)
in vitro = details: human
SARS-CoV-2 [3] = assay: microbe, parasite or virus in culture; type: cell-based; details: Severe acute respiratory syndrome coronavirus 2, HEK-293T; HEK293T/ACE2-TMPRSS2 cells; strains WK-521, QK002, TY7-501, TY8-612, TY11-927-P1
HCoV-OC43 = assay: microbe, parasite or virus in culture; details: Betacoronavirus 1, OC43, MRC5, 42 h, read-out: EC90 (90% HCoV-OC43 viral replication inhibitory concentration)
[4] = tested on: SARS-CoV-2 hCoV19/Japan/TY11-927/2021 strain; type: in vivo, Syrian hamsters; details: 3 days after start of living together
[5] = tested on: SARS-CoV-2 hCoV19/Japan/TY11-927/2021 strain; type: in vivo, Syrian hamsters; details: 6 days after start
[6] = tested on: SARS-CoV-2 hCoV-19/Japan/TY7-501/2021; assay: Test Example 9: influence of human serum and mouse serum on anti-SARS-CoV-2 activity; type: cell-based; details: Severe acute respiratory syndrome coronavirus 2, serum 100% condition by linear regression
[7] = tested on: SARS-CoV-2 hCoV19/Japan/TY11-927/2021 strain; set-up: species or system Syrian hamsters; details: in vivo
HCoV-229E = assay: Test Example 8: antiviral effect on HCoV-229E (MRC-5 cells, CellTiter-Glo); type: cell-based; details: Human coronavirus 229E, MRC5, read-out: EC50 (50% HCoV-229E infected cell death inhibitory concentration), 72 hours
Procedure: Test Example 8: Antiviral Effect on HCoV-229E
The test sample is preliminarily diluted with DMSO to an appropriate concentration, and a 3-fold serial dilution series is prepared and then dispensed into a 96-well plate and diluted in a maintenance medium (MEM, 2% FBS, penicillin-streptomycin).
MRC-5 cells (2×10^4 cells/well) suspended in a subculture medium (DMEM, 10% FBS, penicillin-streptomycin) are seeded in a 96-well plate a day before infection, and the next day, HCoV-229E (1000 TCID50/well) suspended in a maintenance medium (MEM, 2% FBS, penicillin-streptomycin) is infected for 1 hour. Thereafter, virus fluid is removed, a maintenance medium including a test reagent is added, and culturing is carried out in a CO2 incubator for 72 hours. Furthermore, in order to examine cytotoxicity of the test reagent, the same operation is performed in the absence of virus.
After returning the plate cultured for 72 hours to room temperature, CellTiter-Glo (registered trademark) 2.0 is dispensed into each well and mixed with a plate mixer. After a certain time interval, the luminescence signal (Lum) is measured with a plate reader.
When x is taken as the logarithmic value of the compound concentration and y as % Efficacy, the inhibition curve is approximated by the following Logistic regression equation, and the value of x when substituting 50(%) for y is calculated as EC50.
[formula] […]

[8] = target: SARS-CoV-2 3CL Protease WT (Severe acute respiratory syndrome coronavirus 2 (2019-nCoV) (SARS-CoV-2), UniProt P0DTD1); assay: biochemical; details: read-out: EC50 (table head; method calculates IC50)
[9] = target: Recombinant SARS-CoV-2 3CL Protease (Severe acute respiratory syndrome coronavirus 2 (2019-nCoV) (SARS-CoV-2), UniProt P0DTD1); assay: Test Example 2: inhibitory activity test against SARS-CoV-2 3CL protease; type: biochemical; details: class symbols
SARS-CoV-2 [10] = assay: microbe, parasite or virus in culture; type: cell-based; details: Severe acute respiratory syndrome coronavirus 2, 72 h; VeroE6/TMPRSS2 cells, 3 days; class symbols

Work on `Cn1cnc(Cn2c(=O)[nH]/c(=N\c3cc4cn(C)nc4cc3Cl)n(Cc3cc(F)c(F)cc3F)c2=O)n1` yielded an EC50 [1] of 83 nM, an EC50 ([2]; Severe acute respiratory syndrome coronavirus 2, VeroE6/TMPRSS2, Omicron TY38-871 (BA.1.1)) of 360 nM and an EC50 ([2]; Severe acute respiratory syndrome coronavirus 2, VeroE6/TMPRSS2, Omicron TY38-873 (BA.1)) of 290 nM. It also gave an EC50 ([2]; Severe acute respiratory syndrome coronavirus 2, VeroE6/TMPRSS2, Omicron TY40-385 (BA.2)) of 520 nM, an EC50 ([2]; Severe acute respiratory syndrome coronavirus 2, VeroE6/TMPRSS2, Omicron TY41-686 (XE)) of 440 nM and an EC50 ([2]; Severe acute respiratory syndrome coronavirus 2, VeroE6/TMPRSS2, Omicron TY41-702 (BA.5)) of 400 nM. The EC50 ([2]; Severe acute respiratory syndrome coronavirus 2, VeroE6/TMPRSS2, Omicron TY41-703 (BA.4)) was 220 nM, the EC50 ([2]; Severe acute respiratory syndrome coronavirus 2, VeroE6/TMPRSS2, Omicron TY41-716 (BA.2.75)) was 300 nM and the EC50 (SARS-CoV Hanoi strain) was 209 nM. The CC50 (in vitro) was over 200 µM, the EC50 (SARS-CoV-2 [3]) was 26 to 58 nM and the EC90 (HCoV-OC43) was 74 nM. The “intranasal concha virus titer of uninfected hamster co-housed with treated infected hamster” value [4] was 2.89 log10 TCID50/mL, the “lung virus titer of uninfected hamster co-housed with treated infected hamster” value [4] was 2.97 log10 TCID50/mL and the “lung virus titer of administered hamsters co-housed with infected hamster” value ([5]; 30 mg/kg oral twice a day for six days) was 3.48 log10 PFU50/mL. The “lung virus titer of administered hamsters co-housed with infected hamster” value ([5]; 200 mg/kg oral twice a day for six days) was “a detection limit value or less”, the EC50 ([6]; human serum, read-out: human serum PA-EC50 (protein-adjusted EC50)) was 3.02 µM and the EC50 ([6]; mouse serum, read-out: mouse serum PA-EC50 (protein-adjusted EC50)) was 3.93 µM. The “lung virus titer of uninfected hamsters co-housed with treated infected hamster” value [7] was “the detection limit value or less” and the EC50 (HCoV-229E) was 5.53 µM.
`Cc1cncc(-n2c(=O)nc(Nc3cc4cn(C)nc4cc3Cl)n(Cc3cc(F)c(F)c(F)c3)c2=O)c1` gave an IC50 [8] of 16.7 nM.
`Cc1nc2cc(C)c(Nc3nc(=O)n(Cc4c[nH]cn4)c(=O)n3Cc3cc(F)c(F)c(F)c3)cc2s1` [Compound I-001] gave an IC50 [9] of 1000 to 10000 nM.
Work on `Cc1cncc(-n2c(=O)nc(Nc3cc4cn(C)nc4cc3F)n(Cc3cc(F)c(F)c(F)c3)c2=O)c1` [Compound I-002] yielded an EC50 (SARS-CoV-2 [10]) of under 1000 nM and an IC50 [9] of under 100 nM.
Work on `Cc1cncc(-n2c(=O)nc(Nc3cc4cn(C)nc4cc3C)n(Cc3cc(F)c(F)c(F)c3)c2=O)c1` [Compound I-004] yielded an EC50 (SARS-CoV-2 [10]) of 1000 to 10000 nM and an IC50 [9] of under 100 nM.
In the case of `CC(=O)N1CC(n2cc3cc(Nc4nc(=O)n(-c5cncc6ccccc56)c(=O)n4Cc4cc(F)c(F)c(F)c4)c(Cl)cc3n2)C1` [Compound I-007], the IC50 [9] is reported as under 100 nM.
In the case of `Cn1cc2cc(Nc3nc(=O)n(-c4cncc(CO)c4)c(=O)n3Cc3cc(F)c(F)c(F)c3)ccc2n1` [Compound I-008], the IC50 [9] is reported as 100 to 1000 nM.
`N#Cc1cc(Cn2c(Nc3ccc4nn(CC(F)F)cc4c3)nc(=O)n(-c3cncc4ccccc34)c2=O)ccc1F` [Compound I-009] gave an EC50 (SARS-CoV-2 [10]) of under 1000 nM and an IC50 [9] of under 100 nM.
Work on `Cc1cncc(-n2c(=O)nc(Nc3ccc4nn(CC(F)F)cc4c3)n(Cc3ccc(F)c(C#N)c3)c2=O)c1` [Compound I-011] yielded an EC50 (SARS-CoV-2 [10]) of under 1000 nM and an IC50 [9] of under 100 nM.
For `Cc1cc2nn(C)cc2cc1Nc1nc(=O)n(-c2cncc3ccccc23)c(=O)n1Cc1cc(F)c(F)c(F)c1` [Compound I-013], the EC50 (SARS-CoV-2 [10]) was 1000 to 10000 nM and the IC50 [9] was under 100 nM.
Work on `Cn1cc2cc(Nc3nc(=O)n(-c4cncc5ccccc45)c(=O)n3Cc3cc(F)c(F)c(F)c3)c(Cl)cc2n1` [Compound I-014] yielded an EC50 (SARS-CoV-2 [10]) of under 1000 nM and an IC50 [9] of under 100 nM.
For `Cn1cc2cc(Nc3nc(=O)n(-c4cncc5ccccc45)c(=O)n3Cc3ccc(F)c(C#N)c3)c(Cl)cc2n1` [Compound I-015], the EC50 (SARS-CoV-2 [10]) was under 1000 nM and the IC50 [9] was under 100 nM.
`Cn1cc2cc(Nc3nc(=O)n(-c4cncc5ccccc45)c(=O)n3Cc3cc(F)c(F)c(F)c3)ccc2n1` [Compound I-016] showed an EC50 (SARS-CoV-2 [10]) of under 1000 nM and an IC50 [9] of under 100 nM.
`Cc1cncc(-n2c(=O)nc(Nc3cc4cn(C)nc4cc3F)n(Cc3ccc(F)c(C#N)c3)c2=O)c1` [Compound I-018] showed an EC50 (SARS-CoV-2 [10]) of under 1000 nM and an IC50 [9] of under 100 nM.
With `Cc1cncc(-n2c(=O)nc(Nc3cc4cn(C)nc4cc3C)n(Cc3ccc(F)c(C#N)c3)c2=O)c1` [Compound I-019] the EC50 (SARS-CoV-2 [10]) was under 1000 nM and the IC50 [9] was under 100 nM.
With `O=c1nc(Nc2cc3cn(CCN4CCOCC4)nc3cc2Cl)n(Cc2cc(F)c(F)c(F)c2)c(=O)n1-c1cncc2ccccc12` [Compound I-020] the EC50 (SARS-CoV-2 [10]) was 1000 to 10000 nM and the IC50 [9] was under 100 nM.
Compound `Cn1cnc(Cn2c(=O)nc(Nc3cc4cn(C)nc4cc3Cl)n(Cc3cc(F)c(F)c(F)c3)c2=O)n1` [Compound I-021] has an EC50 (SARS-CoV-2 [10]) of under 1000 nM and an IC50 [9] of under 100 nM.
Compound `Cc1nc2cc(Cl)c(Nc3nc(=O)n(Cc4ncn(C)n4)c(=O)n3Cc3cc(F)c(F)c(F)c3)cc2n1C` [Compound I-022] has an EC50 (SARS-CoV-2 [10]) of 1000 to 10000 nM and an IC50 [9] of under 100 nM.
`N#Cc1cc(Cn2c(Nc3cc4cn(C(F)F)nc4cc3Cl)nc(=O)n(-c3cncc4ccccc34)c2=O)ccc1F` [Compound I-024] gave an EC50 (SARS-CoV-2 [10]) of under 1000 nM and an IC50 [9] of under 100 nM.
With `Cn1cc2cc(Nc3nc(=O)n(-c4cncc5ccccc45)c(=O)n3Cc3ccc(F)c(C#N)c3)c(F)cc2n1` [Compound I-025] the EC50 (SARS-CoV-2 [10]) was under 1000 nM and the IC50 [9] was under 100 nM.
`Cc1cncc(-n2c(=O)nc(Nc3cc4cn(C(F)F)nc4cc3Cl)n(Cc3ccc(F)c(C#N)c3)c2=O)c1` [Compound I-026] showed an EC50 (SARS-CoV-2 [10]) of under 1000 nM and an IC50 [9] of under 100 nM.
Compound `Cc1cc2nn(C)cc2cc1Nc1nc(=O)n(-c2cncc3ccccc23)c(=O)n1Cc1ccc(F)c(C#N)c1` [Compound I-027] has an EC50 (SARS-CoV-2 [10]) of under 1000 nM and an IC50 [9] of under 100 nM.
With `Cn1cnc(Cn2c(=O)nc(Nc3cc4cn(CCO)nc4cc3Cl)n(Cc3cc(F)c(F)c(F)c3)c2=O)n1` [Compound I-028] the EC50 (SARS-CoV-2 [10]) was 1000 to 10000 nM and the IC50 [9] was under 100 nM.
For `Cn1cnc(Cn2c(=O)nc(Nc3cc4cn(CC(F)F)nc4cc3Cl)n(Cc3cc(F)c(F)c(F)c3)c2=O)n1` [Compound I-029], the EC50 (SARS-CoV-2 [10]) was under 1000 nM and the IC50 [9] was under 100 nM.
`Cn1cnc(Cn2c(=O)nc(Nc3cc4cn(C(F)F)nc4cc3Cl)n(Cc3cc(F)c(F)c(F)c3)c2=O)n1` [Compound I-030] gave an EC50 (SARS-CoV-2 [10]) of 1000 to 10000 nM and an IC50 [9] of under 100 nM.
With `Cc1nc2cc(Cl)c(Nc3nc(=O)n(-c4cncc5ccccc45)c(=O)n3Cc3cc(F)c(F)c(F)c3)cc2n1C` [Compound I-032] the EC50 (SARS-CoV-2 [10]) was 1000 to 10000 nM and the IC50 [9] was under 100 nM.
Compound `CC(=O)NCCn1cc2cc(Nc3nc(=O)n(-c4cncc5ccccc45)c(=O)n3Cc3cc(F)c(F)c(F)c3)c(Cl)cc2n1` [Compound I-033] has an EC50 (SARS-CoV-2 [10]) of 1000 to 10000 nM and an IC50 [9] of under 100 nM.
For `O=c1nc(Nc2ccc3nn(CC(F)F)cc3c2)n(Cc2cc(F)c(F)c(F)c2)c(=O)n1-c1cncc2ccccc12` [Compound I-034], the EC50 (SARS-CoV-2 [10]) was under 1000 nM and the IC50 [9] was under 100 nM.

Source: patent US20250127788A1, “PHARMACEUTICAL COMPOSITION CONTAINING TRIAZINE DERIVATIVE” (Shionogi & Co., Ltd., priority 2021, published 2025)
